According to ChEMBL document CHEMBL4699645 (2020):
Where a SMILES comes first, the peptide text is derived from it. Bridges are numbered along the chain shown (N, C = ends).

Columns and labels:
[1] = target: Neuronal acetylcholine receptor; alpha3/beta2 (Rattus norvegicus, UniProt P04757+P12390); experiment: Antagonist activity at rat alpha3beta2 nAChR expressed in Xenopus laevis oocytes assessed as inhibition of Ach-induced response at -70 mV holding potential incubated for 5 mins by voltage-clamp assay; format: cell-based, Oocyte
Chain of Neuronal acetylcholine receptor; alpha3/beta2 (P04757 whole entry): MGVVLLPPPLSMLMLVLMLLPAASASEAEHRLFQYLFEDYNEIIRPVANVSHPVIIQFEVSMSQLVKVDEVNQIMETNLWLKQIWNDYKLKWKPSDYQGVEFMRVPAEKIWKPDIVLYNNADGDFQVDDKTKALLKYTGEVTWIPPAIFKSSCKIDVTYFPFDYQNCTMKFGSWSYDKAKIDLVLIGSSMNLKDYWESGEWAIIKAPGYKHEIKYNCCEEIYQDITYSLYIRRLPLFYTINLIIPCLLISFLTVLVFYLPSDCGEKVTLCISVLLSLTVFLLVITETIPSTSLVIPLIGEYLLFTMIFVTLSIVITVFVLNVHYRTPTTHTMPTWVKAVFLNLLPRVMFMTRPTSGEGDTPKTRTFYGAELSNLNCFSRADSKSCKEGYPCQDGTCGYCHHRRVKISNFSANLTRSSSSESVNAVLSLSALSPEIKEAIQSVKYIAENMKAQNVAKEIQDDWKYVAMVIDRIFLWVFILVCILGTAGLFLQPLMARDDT
Chain of Neuronal acetylcholine receptor; alpha3/beta2 (P12390 whole entry): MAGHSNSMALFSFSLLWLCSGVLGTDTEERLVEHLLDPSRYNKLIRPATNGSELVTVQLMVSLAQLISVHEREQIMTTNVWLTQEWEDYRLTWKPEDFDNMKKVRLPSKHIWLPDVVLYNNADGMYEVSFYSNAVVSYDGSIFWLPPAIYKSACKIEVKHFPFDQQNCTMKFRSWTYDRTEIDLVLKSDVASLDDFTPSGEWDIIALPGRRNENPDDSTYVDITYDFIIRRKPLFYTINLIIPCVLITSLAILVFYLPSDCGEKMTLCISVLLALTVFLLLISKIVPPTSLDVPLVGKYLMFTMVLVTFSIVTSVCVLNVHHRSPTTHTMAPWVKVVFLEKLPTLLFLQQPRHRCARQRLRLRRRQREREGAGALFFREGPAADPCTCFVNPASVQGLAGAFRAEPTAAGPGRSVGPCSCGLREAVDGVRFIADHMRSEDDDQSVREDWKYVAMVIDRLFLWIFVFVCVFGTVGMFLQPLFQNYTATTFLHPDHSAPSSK

[2] = target: Neuronal acetylcholine receptor; alpha3/beta4 (Rattus norvegicus, UniProt P04757+P12392); experiment: Antagonist activity at rat alpha3beta4 nAChR expressed in Xenopus laevis oocytes assessed as inhibition of Ach-induced response at -70 mV holding potential incubated for 5 mins by voltage-clamp assay; format: cell-based, Oocyte
Chain of Neuronal acetylcholine receptor; alpha3/beta4 (P04757 whole entry): as the sequence (P04757 whole entry) above
Chain of Neuronal acetylcholine receptor; alpha3/beta4 (P12392 whole entry): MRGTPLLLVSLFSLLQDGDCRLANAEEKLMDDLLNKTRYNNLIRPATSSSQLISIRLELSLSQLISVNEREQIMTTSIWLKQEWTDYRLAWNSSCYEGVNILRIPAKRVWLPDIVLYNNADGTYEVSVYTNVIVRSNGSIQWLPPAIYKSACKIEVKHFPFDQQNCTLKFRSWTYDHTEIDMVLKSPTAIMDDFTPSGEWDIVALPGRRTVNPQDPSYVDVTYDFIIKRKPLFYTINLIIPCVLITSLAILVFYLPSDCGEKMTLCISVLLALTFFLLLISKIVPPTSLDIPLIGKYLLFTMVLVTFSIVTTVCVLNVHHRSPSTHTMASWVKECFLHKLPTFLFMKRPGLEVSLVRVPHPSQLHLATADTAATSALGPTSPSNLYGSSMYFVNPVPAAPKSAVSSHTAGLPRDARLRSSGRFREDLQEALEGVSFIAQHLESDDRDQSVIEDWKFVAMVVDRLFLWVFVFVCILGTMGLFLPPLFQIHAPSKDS

Rattus norvegicus = species: Rattus norvegicus; experiment: Selectivity index, ratio of IC50 for rat alpha3beta4 nAChR expressed in Xenopus laevis oocytes to IC50 for rat alpha3beta2 nAChR expressed in Xenopus laevis oocytes; format: cell-based
[3] = Displacement of [125I]-alpha-bungarotoxin from Aplysia californica C-terminal His6-tagged N-terminal gp67 signal peptide-tagged acetylcholine receptor binding protein expressed in Hi5 insect cells preincubated for 3 hrs followed by [125I]-alpha-bungarotoxin measured after 5 mins by radioligand binding assay
[4] = target: T1, Neuronal acetylcholine receptor; alpha3/beta2 (Rattus norvegicus) (UniProt P04757+P12390); experiment: Antagonist activity at rat alpha3beta2 nAChR expressed in Xenopus laevis oocytes assessed as inhibition of Ach-induced response at -70 mV holding potential incubated for 5 mins by voltage-clamp assay relative to LvIA IC50; format: cell-based; settings: Oocyte
[5] = Antagonist activity at rat alpha3beta2 nAChR S168I mutant expressed in Xenopus laevis oocytes assessed as inhibition of Ach-induced response at -70 mV holding potential measured after 5 mins by voltage-clamp assay; format: cell-based; settings: Oocyte
Oocyte [6] = experiment: Antagonist activity at rat alpha3beta2 nAChR S168I mutant expressed in Xenopus laevis oocytes assessed as inhibition of Ach-induced response by measuring recovery of ACh-induced response time at 10 nM with -70 mV holding potential measured after 5 mins voltage-clamp assay; format: cell-based
[7] = target: T1, Neuronal acetylcholine receptor; alpha3/beta2 (Rattus norvegicus); experiment: Antagonist activity at rat alpha3beta2 nAChR expressed in Xenopus laevis oocytes assessed as inhibition of Ach-induced response by measuring recovery of ACh-induced response time at 10 nM with -70 mV holding potential measured after 5 mins voltage-clamp assay; format: cell-based; settings: Oocyte
Hi-5 = experiment: Displacement of [125I]-alpha-bungarotoxin from Aplysia californica C-terminal His6-tagged N-terminal gp67 signal peptide-tagged acetylcholine receptor binding protein expressed in Hi5 insect cells preincubated for 3 hrs followed by [125I]-alpha-bungarotoxin measured after 5 mins by radioligand binding assay relative to LvIA IC50; settings: time 185.0 min
[8] = target: Neuronal acetylcholine receptor; alpha3/beta4 (Rattus norvegicus) (UniProt P04757+P12392); experiment: Antagonist activity at rat alpha3beta4 nAChR expressed in Xenopus laevis oocytes assessed as inhibition of Ach-induced response at -70 mV holding potential incubated for 5 mins by voltage-clamp assay relative to LvIA IC50; format: cell-based; settings: Oocyte
[9] = target: T1, Neuronal acetylcholine receptor; alpha3/beta2 (Rattus norvegicus); experiment: Antagonist activity at wild type rat alpha3beta2 nAChR expressed in Xenopus laevis oocytes assessed as inhibition of Ach-induced response at 1 uM at -70 mV holding potential measured after 5 mins by voltage-clamp assay relative to control; format: cell-based; settings: Oocyte, filed as antagonist
Oocyte [10] = experiment: Antagonist activity at rat alpha3beta2 nAChR F106V mutant expressed in Xenopus laevis oocytes assessed as inhibition of Ach-induced response at 1 uM at -70 mV holding potential measured after 5 mins by voltage-clamp assay relative to control; format: cell-based; settings: filed as antagonist
Oocyte [11] = experiment: Antagonist activity at rat alpha3beta2 nAChR S108T mutant expressed in Xenopus laevis oocytes assessed as inhibition of Ach-induced response at 1 uM at -70 mV holding potential measured after 5 mins by voltage-clamp assay relative to control; format: cell-based
[12] = target: T1, Neuronal acetylcholine receptor; alpha3/beta2 (Rattus norvegicus); experiment: Antagonist activity at rat wild-type alpha3beta2 nAChR expressed in Xenopus laevis oocytes assessed as inhibition of Ach-induced response at 10 nM at -70 mV holding potential measured after 5 mins by voltage-clamp assay relative to control; format: cell-based; settings: Oocyte
Oocyte [13] = experiment: Antagonist activity at rat alpha3beta2 nAChR S113R mutant expressed in Xenopus laevis oocytes assessed as inhibition of Ach-induced response at 10 nM at -70 mV holding potential measured after 5 mins by voltage-clamp assay relative to control; format: cell-based; settings: filed as antagonist
[14] = Antagonist activity at rat alpha3beta2 nAChR F106V mutant expressed in Xenopus laevis oocytes assessed as inhibition of Ach-induced response at -70 mV holding potential measured after 5 mins by voltage-clamp assay; format: cell-based; settings: Oocyte
[15] = Antagonist activity at rat alpha3beta2 nAChR S108T mutant expressed in Xenopus laevis oocytes assessed as inhibition of Ach-induced response at -70 mV holding potential measured after 5 mins by voltage-clamp assay; format: cell-based; settings: Oocyte
[16] = Antagonist activity at rat alpha3beta2 nAChR A110V mutant expressed in Xenopus laevis oocytes assessed as inhibition of Ach-induced response at -70 mV holding potential measured after 5 mins by voltage-clamp assay; format: cell-based; settings: Oocyte
[17] = Antagonist activity at rat alpha3beta2 nAChR S113R mutant expressed in Xenopus laevis oocytes assessed as inhibition of Ach-induced response at -70 mV holding potential measured after 5 mins by voltage-clamp assay; format: cell-based; settings: Oocyte
[18] = Antagonist activity at rat alpha3beta2 nAChR Y114S mutant expressed in Xenopus laevis oocytes assessed as inhibition of Ach-induced response at -70 mV holding potential measured after 5 mins by voltage-clamp assay; format: cell-based; settings: Oocyte
[19] = Antagonist activity at rat alpha3beta2 nAChR D115N mutant expressed in Xenopus laevis oocytes assessed as inhibition of Ach-induced response at -70 mV holding potential measured after 5 mins by voltage-clamp assay; format: cell-based; settings: Oocyte
[20] = Antagonist activity at rat alpha3beta2 nAChR D165P mutant expressed in Xenopus laevis oocytes assessed as inhibition of Ach-induced response at -70 mV holding potential measured after 5 mins by voltage-clamp assay; format: cell-based; settings: Oocyte
[21] = Antagonist activity at rat alpha3beta2 nAChR V166T mutant expressed in Xenopus laevis oocytes assessed as inhibition of Ach-induced response at -70 mV holding potential measured after 5 mins by voltage-clamp assay; format: cell-based; settings: Oocyte
[22] = Antagonist activity at rat alpha3beta2 nAChR L169M mutant expressed in Xenopus laevis oocytes assessed as inhibition of Ach-induced response at -70 mV holding potential measured after 5 mins by voltage-clamp assay; format: cell-based; settings: Oocyte
Oocyte [23] = experiment: Antagonist activity at rat alpha3beta2 nAChR S168I mutant expressed in Xenopus laevis oocytes assessed as inhibition of Ach-induced response at 10 nM at -70 mV holding potential measured after 5 mins by voltage-clamp assay relative to control; format: cell-based; settings: filed as antagonist

Molecule `CC[C@H](C)[C@@H]1NC(=O)[C@H](CCC(=O)O)NC(=O)[C@@H]2CCCN2C(=O)[C@H](Cc2cnc[nH]2)NC(=O)[C@H](CC(=O)O)NC(=O)[C@H](C(C)C)NC(=O)[C@H](C)NC(=O)[C@@H]2CSSC[C@H](NC(=O)CN)C(=O)N[C@@H](CSSC[C@@H](C(N)=O)NC1=O)C(=O)N[C@@H](CO)C(=O)N[C@@H](Cc1cnc[nH]1)C(=O)N1CCC[C@H]1C(=O)N[C@@H](C)C(=O)N2` (H-GCCSHPACAVDHPEIC-NH2; disulfide 2-8, 3-16) has an IC50 [1] of 2.1 nM, an IC50 [2] of 4270 nM and a Ratio IC50 (Rattus norvegicus) of 2030. The IC50 [3] was 760 nM, the Ratio IC50 [4] was 0.13 and the IC50 [5] was 0.66 nM. The TIME (Oocyte [6]) was greater than 0.333 h, the TIME [7] was 0.0167 h and the Ratio IC50 (Hi-5) was -0.48. It also gave a Ratio IC50 [8] of 14.7.
For `CC[C@H](C)[C@@H]1NC(=O)[C@H](CCC(=O)O)NC(=O)[C@@H]2CCCN2C(=O)[C@H](Cc2cnc[nH]2)NC(=O)[C@H](CC(=O)O)NC(=O)[C@H](C(C)C)NC(=O)[C@H](CC(N)=O)NC(=O)[C@@H]2CSSC[C@H](NC(=O)CN)C(=O)N[C@@H](CSSC[C@@H](C(N)=O)NC1=O)C(=O)N[C@@H](CO)C(=O)N[C@@H](Cc1cnc[nH]1)C(=O)N1CCC[C@H]1C(=O)N[C@@H](C)C(=O)N2`, the IC50 [3] was 2300 nM, the inhibition [9] was 94.4% and the inhibition (Oocyte [10]) was 55%. For the same molecule, the inhibition (Oocyte [11]) was 33.4%, the inhibition [12] was 28.8% and the inhibition (Oocyte [13]) was 91.9%. It also gave an IC50 [14] of 401 nM, an IC50 [15] of 1660 nM and an IC50 [16] of 54 nM. The IC50 [17] was 4.1 nM, the IC50 [18] was 31.3 nM and the IC50 [19] was 23.6 nM. The IC50 [20] was 16.6 nM, the IC50 [21] was 31.8 nM and the IC50 [5] was 0.7 nM. The IC50 [22] was 29.6 nM and the inhibition (Oocyte [23]) was 94.6%.
